These results are taken from ChEMBL document CHEMBL1135278, “Thiophene derivatives: a new series of potent norepinephrine and serotonin reuptake inhibitors” (Bioorg Med Chem Lett, 2002).

Assay [1] has as its target Sodium-dependent dopamine transporter (Rattus norvegicus, UniProt P23977). Briefly: Inhibition of [3H]DA reuptake at dopamine transporter in rat striatum. It is filed as tissue-based.
Assay [2] has as its target Norepinephrine transporter (Rattus norvegicus, UniProt Q9WTR4). As to the kind of experiment: Inhibition of [3H]-NE reuptake at Norepinephrine transporter in rat parietal/occipital cortex.
The target in assay [3] is Sodium-dependent serotonin transporter (Rattus norvegicus, UniProt P31652). Briefly: Inhibition of [3H]5-HT reuptake at serotonin transporter in rat mid brain.
Sodium-dependent serotonin transporter, sequence (P31652 whole entry): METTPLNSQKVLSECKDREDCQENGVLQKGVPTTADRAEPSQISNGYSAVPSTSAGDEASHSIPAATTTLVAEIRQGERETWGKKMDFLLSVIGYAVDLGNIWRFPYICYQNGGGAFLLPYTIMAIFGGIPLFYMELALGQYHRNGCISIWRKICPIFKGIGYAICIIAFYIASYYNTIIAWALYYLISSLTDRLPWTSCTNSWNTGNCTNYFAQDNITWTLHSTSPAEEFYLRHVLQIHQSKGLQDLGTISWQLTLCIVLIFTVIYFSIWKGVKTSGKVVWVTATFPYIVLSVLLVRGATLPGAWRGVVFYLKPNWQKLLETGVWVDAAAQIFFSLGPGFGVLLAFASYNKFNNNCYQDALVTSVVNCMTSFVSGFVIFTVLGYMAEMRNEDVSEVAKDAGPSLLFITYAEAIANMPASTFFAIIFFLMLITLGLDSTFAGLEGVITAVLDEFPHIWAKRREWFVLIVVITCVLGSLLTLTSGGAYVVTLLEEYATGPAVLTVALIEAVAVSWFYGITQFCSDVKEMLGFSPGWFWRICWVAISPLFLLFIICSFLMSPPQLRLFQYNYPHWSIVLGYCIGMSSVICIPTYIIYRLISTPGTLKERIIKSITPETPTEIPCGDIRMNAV
The target in assay [4] is Monoamine transporters; Norepinephrine & serotonin (Rattus norvegicus) (UniProt P31652+Q9WTR4). As to the kind of experiment: Relative reuptake inhibition at norepinephrine and serotonin transporters. It is filed as protein assay.

Sodium-dependent dopamine transporter, sequence (P23977 whole entry): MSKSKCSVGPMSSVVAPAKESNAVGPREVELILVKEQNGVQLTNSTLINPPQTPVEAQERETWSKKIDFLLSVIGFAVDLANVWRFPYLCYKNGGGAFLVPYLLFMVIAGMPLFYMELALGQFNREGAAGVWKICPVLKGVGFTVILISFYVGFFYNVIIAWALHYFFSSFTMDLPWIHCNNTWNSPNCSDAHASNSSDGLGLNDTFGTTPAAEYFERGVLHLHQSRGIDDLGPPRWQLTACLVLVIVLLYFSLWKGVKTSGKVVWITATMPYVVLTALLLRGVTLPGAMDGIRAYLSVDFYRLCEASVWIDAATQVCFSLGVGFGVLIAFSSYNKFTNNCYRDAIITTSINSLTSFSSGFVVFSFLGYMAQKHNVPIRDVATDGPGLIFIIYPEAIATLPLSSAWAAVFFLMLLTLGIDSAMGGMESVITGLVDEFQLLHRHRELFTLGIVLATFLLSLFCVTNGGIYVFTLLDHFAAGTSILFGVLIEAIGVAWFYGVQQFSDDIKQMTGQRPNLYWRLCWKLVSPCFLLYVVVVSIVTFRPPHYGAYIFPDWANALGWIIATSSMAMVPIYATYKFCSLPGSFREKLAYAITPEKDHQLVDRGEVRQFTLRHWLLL
Norepinephrine transporter, sequence (Q9WTR4 whole entry): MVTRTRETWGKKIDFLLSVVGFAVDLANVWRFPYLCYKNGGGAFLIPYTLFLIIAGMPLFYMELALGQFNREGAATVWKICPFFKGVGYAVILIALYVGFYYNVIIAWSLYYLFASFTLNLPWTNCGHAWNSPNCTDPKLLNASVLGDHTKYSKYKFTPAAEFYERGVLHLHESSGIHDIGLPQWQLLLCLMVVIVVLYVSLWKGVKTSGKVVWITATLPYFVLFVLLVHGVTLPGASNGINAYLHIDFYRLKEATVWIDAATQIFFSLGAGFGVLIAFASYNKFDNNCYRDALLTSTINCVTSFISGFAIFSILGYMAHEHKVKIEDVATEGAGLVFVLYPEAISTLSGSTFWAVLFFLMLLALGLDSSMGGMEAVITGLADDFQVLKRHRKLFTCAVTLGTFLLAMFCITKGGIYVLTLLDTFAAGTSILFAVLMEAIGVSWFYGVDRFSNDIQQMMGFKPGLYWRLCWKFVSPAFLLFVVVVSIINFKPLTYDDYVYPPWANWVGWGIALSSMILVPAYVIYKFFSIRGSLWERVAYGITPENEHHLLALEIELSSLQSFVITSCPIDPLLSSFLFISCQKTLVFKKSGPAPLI

As a reminder, the Ki is a dissociation constant, usually derived from enzyme kinetics or from competition with a known ligand. Lower therefore signals a stronger hold on the target. In the case of `COC(=O)C1C2CC3CCC1N3C/C2=C\c1cccs1` (stereo unspecified), the values for the Ki in assay [1], in assay [2] and in assay [3] were 268 nM, 26.4 nM and 2050 nM, respectively.

With `COC(=O)C1C2CC3CCC1N3C/C2=C\c1ccc(I)s1` (stereo unspecified), the Ki in assay [1] worked out at 368 nM; in assay [2] it was 5 nM; in assay [3], 29 nM.

On to `CC(=O)OCC1C2CC3CCC1N3C/C2=C\c1cccs1` (stereo unspecified), for which the Ki in assay [1] was determined as 610 nM; in assay [2], 283 nM; in assay [3], 1530 nM.

With `CC(=O)NCC1C2CC3CCC1N3C/C2=C\c1cccs1` (stereo unspecified), the Ki in assay [1] came out at 6140 nM; in assay [2] it was 2430 nM; in assay [3], 13300 nM.

In assay [3], `O=C(OCC1C2CC3CCC1N3C/C2=C\c1ccc(I)cc1)c1ccccc1` (stereo unspecified) yielded a Ki of 0.1 nM.

Turning to `O=C(OCC1C2CC3CCC1N3C/C2=C\c1ccc(I)c(Cl)c1)c1ccccc1` (stereo unspecified), in assay [3], the affinity, expressed as Ki, was 0.06 nM.

With `CC(C)(C)C(=O)OCC1C2CC3CCC1N3C/C2=C\c1cccs1` (stereo unspecified), the Ki was determined as 1020 nM in assay [1], 1180 nM in assay [2] and 168 nM in assay [3].

In the case of `CC(C)(C)OC(=O)NCC1C2CC3CCC1N3C/C2=C\c1cccs1` (stereo unspecified), the figures for the inhibition constant (Ki) in assay [1], in assay [2] and in assay [3] were 2300 nM, 1700 nM and 2360 nM, respectively.

Consider `O=C(OCC1C2CC3CCC1N3C/C2=C\c1cccs1)c1ccc2ccccc2c1` (stereo unspecified), for which the results for the Ki in assay [1], in assay [2] and in assay [3] were 1680 nM, 1230 nM and 169 nM, respectively.

Turning to `O=C(OCC1C2CC3CCC1N3C/C2=C\c1cccs1)c1ccccc1` (stereo unspecified), the Ki was found to be 1750 nM in assay [1], 894 nM in assay [2] and 1.53 nM in assay [3].

For `COC(=O)C1C2CC3CCC1N3C/C2=C\c1ccc(C)s1` (stereo unspecified), the Ki in assay [1] is 403 nM; in assay [2], 4.9 nM; in assay [3], 179 nM.

With `OCC1C2CC3CCC1N3C/C2=C\c1cccs1` (stereo unspecified), the Ki in assay [1] was ~3000 nM; in assay [2], ~300 nM; in assay [3], ~1000 nM. Moreover, the Ratio in assay [4] was determined as 0.3.

In the case of `CC(C)OC(=O)C1C2CC3CCC1N3C/C2=C\c1cccs1` (stereo unspecified), the Ki came out at 428 nM in assay [1], 52.3 nM in assay [2] and 1150 nM in assay [3].
